Results as given in the OPERA property sets (Mansouri et al. 2018).
Peptide text beside a SMILES is read from it.

Row | SMILES | logP
1 | COc1ccc(N=NN(C)C)cc1 | 2.99
2 | OCc1ccccc1O | 0.73
3 | Cc1ccccc1N | 1.32
4 | Cc1ccnc(NS(=O)(=O)c2ccc(N)cc2)n1 | 0.14
5 | O=C(Cc1ccccc1)c1ccccc1 | 3.18
6 | COCC(=O)Nc1c(I)c(C(=O)NCC(O)CO)c(I)c(C(=O)N(C)CC(O)CO)c1I (stereo not given) | -2.05
7 | Cc1cccc2ccccc12 | 3.87
8 | CCCCCCCCOc1cccc(NC(=O)OCCN2CCCCC2)c1 | 5.82
9 | CC(C)C(=O)NN | -0.63
10 | COc1ccccc1 | 2.11
11 | CCOP(=S)(OCC)Oc1cc(C)nc(C(C)C)n1 | 3.81
12 | CC(=O)C(C)=O | -1.34
13 | Oc1ccc(Cl)c(O)c1 | 1.8
14 | O=C1CCCCC1 | 0.81
15 | CCC(C)c1ccccc1OCC(=O)O (stereo not given) | 3.32
16 | Cc1ncc([N+](=O)[O-])n1CCNC(=O)OCc1ccccc1 | 1.69
17 | COc1ccc(-c2cc3ccccn3c2)cc1 | 4.2
18 | N#Cc1ccnc2ccccc12 | 1.98
19 | CC(C)C(=O)c1ccccc1 | 2.73
20 | Cc1ccc(Cl)cc1 | 3.33
21 | Clc1ccc2ncccc2c1 | 2.73
22 | CN(C1CCCCC1)C1CCCCC1 | 3.71
23 | CCC(C)C(NC(C)=O)C(=O)NC(Cc1ccccc1)C(=O)NC(C)C(N)=O (stereo not drawn) (Ac-Ile-Phe-Ala-NH2; configuration not given here) | 0.52

Row | SMILES | logP
24 | Cc1ccc(O)c2ncccc12 | 2.37
25 | C=C(C)C(=O)OC | 1.38
26 | CN(C)c1ccc(NS(=O)(=O)c2ccc(N)cc2)cc1 | 1.57
27 | CC(C)Oc1cccc(COC(=O)N(C)C)c1 | 3.03
28 | CC(=O)OCC1=C(C(=O)O)N2C(=O)[C@@H](NC(=O)Cc3cccs3)[C@H]2SC1 | -0.41
29 | O=C(CN1CCCCC1)Nc1ccccc1F | 2.16
30 | CC(=O)Oc1ccccc1I | 2.55
31 | O=C(O)C=Cc1ccc([N+](=O)[O-])cc1 | 2.12
32 | CN1C(=O)CN=C(c2ccccc2F)c2cc(F)ccc21 | 2.41
33 | CCN1CCN(C(=O)NC(C(=O)NC2C(=O)N3C(C(=O)O)=C(CSc4nnnn4C)CSC23)c2ccc(O)cc2)C(=O)C1=O (stereo not given) | -0.74
34 | Clc1ccc(-c2cc(Cl)c(Cl)c(Cl)c2Cl)c(Cl)c1 | 7.44
35 | NS(=O)(=O)c1ccc(C(=O)O)cc1 | 0.5
36 | C1COCCOCCOCCO1 | -0.04
37 | CS(=O)(=O)c1c(F)c(F)c(F)c(F)c1F | 1.11
38 | CC(=O)Nc1ccc(S(I)=C(N(C)C)N(C)C)cc1 (stereo not given) | -1.58
39 | CON(C)C(=O)Nc1ccc(OCCCCOc2ccccc2)cc1 | 3.57
40 | CC(C)(C)C(=O)c1ccccc1 | 3
41 | Brc1cc(Br)c(Br)cc1Br | 5.13
42 | O=C(O)Cc1ccccc1Nc1cccc(Cl)c1Cl | 4.86
43 | CNC(=NC#N)NCCSCc1ncccc1OC | 0.97
44 | N#Cc1ccc2ccccc2n1 | 1.6
45 | CCN(CC)c1nc(C)cc(OP(=S)(OC)OC)n1 | 4.2
46 | CN(C)C(N(C)C)=S(I)c1c(Cl)cc(Cl)cc1Cl (stereo not given) | 0.05

Row | SMILES | logP
47 | O=C(O)Cc1ccc(O)cc1 | 0.75
48 | FC(F)(F)c1nc2c(Cl)cccc2[nH]1 | 2.93
49 | Cc1cc([N+](=O)[O-])cc2c1NC(=O)CN=C2c1ccccc1 | 2.44
50 | c1cocn1 | 0.12
51 | COc1ccccc1[N+](=O)[O-] | 1.73
52 | Cc1cccc(C(N)=O)c1 | 1.18
53 | CCC1(C2=CCCCCC2)C(=O)NC(=O)NC1=O | 2.03
54 | CCCCCCOC(N)=O | 1.85
55 | CCC(C)NC(=O)C=C(Cl)c1ccccc1 (stereo not given) | 3.52
56 | O=C1c2ccccc2C(=O)N1c1ccccc1 | 2.4
57 | C=CNP(=O)(NC=C)NC(=O)c1ccc(OC)cc1 | 1.08
58 | ICCCc1ccccc1 | 3.9
59 | CNC(=O)ON=CC(C)(C)SC | 1.13
60 | Brc1ccsc1 | 2.62
61 | CCCc1ccc(C(=O)OCCN(C)C)cc1 | 3.63
62 | COCCOC(=O)c1ccccc1 | 1.78
63 | CNC(=O)c1ccco1 | 0.23
64 | O=C(O)c1ccoc1 | 1.03
65 | CC(=O)N[C@@H](CC(C)C)C(=O)N[C@@H](CO)C(=O)N[C@@H](Cc1ccccc1)C(N)=O (Ac-Leu-Ser-Phe-NH2) | 0.23
66 | CC(C)N | 0.26
67 | CNCC(c1ccccc1)C(C)C (stereo not given) | 3.12
68 | CN1CCN(CC(=O)N/N=C/c2ccc([N+](=O)[O-])o2)CC1 | -0.1
69 | [O-][n+]1cccc2ccccc21 | 0.36

Row | SMILES | logP
70 | O=C(Nc1ccccc1)C1CNCCN1 (stereo not given) | 0.48
71 | O=[N+]([O-])c1ccc(Cl)cc1 | 2.39
72 | CCOC(=O)C(=Cc1ccc(O)c(OC)c1)C(=O)OCC | 2.89
73 | CN(C)CCN(C)C | 0.3
74 | COc1cccc(C(=O)O)c1O | 1.94
75 | NC(=O)Nc1cccc(OCC(=O)O)c1 | 0.26
76 | CCC(=O)OCC(=O)C1(O)CCC2C3CCC4=CC(=O)CCC4(C)C3C(O)CC21C (stereo not given) | 2.8
77 | CCC1COC(Cn2cncn2)(c2ccc(Cl)cc2Cl)O1 (stereo not given) | 3.1
78 | C/C=N/O | -0.13
79 | O=C(CN1CCCCC1)Nc1ccccc1Br | 2.94
80 | CCCCC1CCCc2ncc(C(=O)OC)c(=O)n21 (stereo not given) | 1.77
81 | CCCOCCC | 2.03
82 | C#CCC(O)c1cccnc1 (stereo not given) | 1.21
83 | CC(C)(C)C1(O)CCN2CC3c4ccccc4CCc4cccc(c43)C2C1 (stereo not given) | 5.2
84 | CCc1ccncc1 | 1.65
85 | O=C1C(F)=C(N2CC2)C(=O)C(N2CC2)=C1N1CC1 | 0.14
86 | CC(=O)OCc1ccc(C)cc1 | 2.44
87 | CCCCCCn1cc(C)c(=O)[nH]c1=O | 1.93
88 | CN(C)c1ccc(C#N)cc1 | 2.2
89 | c1ccc(Cn2nccn2)cc1 | 1.56
90 | O=C(O)Cc1cccc(F)c1 | 1.65
91 | CCOc1cccc2cccnc12 | 2.25
92 | CC(=O)Nc1ccc(OC(C)=O)cc1 | 1.05

Row | SMILES | logP
93 | O=c1[nH]c(=O)n([C@H]2C[C@H](O)[C@@H](CO)O2)cc1F | -1.16
94 | CCCCOC(=O)NCC(C)c1ncc([N+](=O)[O-])[nH]1 (stereo not given) | 1.22
95 | Cc1ccc2nc(N)[nH]c2c1 | 1.11
96 | COc1ccc(N(CCCC(=O)O)C(=O)c2ccc(Cl)cc2)cc1 | 2.7
97 | C=CCN1CC[C@]23c4c5ccc(O)c4O[C@H]2[C@@H](O)C=C[C@H]3[C@H]1C5 | 1.86
98 | CCOC(=O)CNC(=O)CNC(=O)CCCCSc1ncnc2nc[nH]c12 | 0.5
99 | FC(F)(F)c1nc2c(Cl)cc(Cl)c(Cl)c2[nH]1 | 3.78
100 | C=CCOc1ccccc1 | 2.94
101 | NC(=O)Nc1ccccc1Cl | 1.27
102 | Nc1cc2ccccc2nn1 | 1
103 | CCN(CC)C(=O)c1ccccc1 | 1.25
104 | COc1cccc(C(=O)NN)c1 | 0.4
105 | CC(=O)Oc1ccccc1Cl | 2.18
106 | OCC=CCO | -0.81
107 | COP(=S)(OC)Oc1ccc([N+](=O)[O-])cc1 | 2.86
108 | CC(=O)Nc1ccc(O)c(C(C)C)c1 | 1.71
109 | CCCCCN(C)/N=N/c1ccc(C(N)=O)cc1 | 3.18
110 | Cc1cc(-c2ccc(N)c(C)c2)ccc1N | 2.34
111 | CNC(=O)Oc1ccccc1C#N | 0.86
112 | NCCc1c[nH]c2ccc(O)cc12 | 0.21
113 | CC(C)(C)NC[C@H](O)COc1ccccc1C1CCCC1 | 4.15
114 | CC(C)c1ccccc1OC(=O)N(C)C | 2.65
115 | CCOC(=O)n1cnc(CC(NC(=O)C2CCC(=O)N2)C(=O)N2CCCC2C(N)=O)c1 (stereo not given) | -1.3
